We go through 4 compounds from US10239889B1, “Pentacyclic compound” (Eisai R&D Management Co., Ltd., priority 2017, dated 2019).

In experiment [1] the test system is rat primary septal neuron culture. As to the kind of experiment: Measurement of acetylcholine (ACh) release in the rat primary septal neuron culture system in the presence of NGF. Type of experiment: cell-based. The settings on record: rat primary septal neurons, with NGF, one day after compound addition, ACh by HPLC. The source says:
Measurement of acetylcholine (ACh) release in the rat primary septal neuron culture system in the presence of NGF
(1) Rat Primary Septal Neuron Culture
The septal area was isolated from Sprague-Dawley (SD) rats (Charles River Laboratories Japan, Inc.) at a fetal age of 18 days, and cultured.
Specifically, fetuses were aseptically removed from pregnant rats under isoflurane anesthesia. The brain was extracted from each fetus, and immersed in ice-cooled L-15 medium (11415-064, Thermo Fisher Scientific). The septal area was dissected from the extracted brain under a stereoscopic microscope. The dissected septal area was subjected to enzyme treatment in an enzyme solution containing 0.25% trypsin (15050-065, Thermo Fisher Scientific) and 0.01% DNase (D5025-150KU, Sigma) at 37° C. for 30 minutes, thereby dispersing the cells. In this case, the enzyme reaction was terminated by adding inactivated horse serum (26050-088, Thermo Fisher Scientific). The enzyme-treated solution was centrifuged at 1000 rpm for 3 minutes, and the supernatant was removed. A medium in an amount of 10 mL was added to the obtained cell mass. The medium used was Dulbecco's Modified Eagle's Medium (044-29765, WAKO) supplemented with N2 supplement (17502-048, Thermo Fisher Scientific), 1 mM sodium pyruvate (11360-070, Thermo Fisher Scientific), and Penicillin-Streptomycin (15140-1221, Thermo Fisher Scientific). The cells of the cell mass to which the medium was added were redispersed by gentle pipetting, and then centrifuged again at 1000 rpm for 3 minutes, and the supernatant was removed. The medium in an amount of 10 mL was added to the obtained cell mass, and the cell dispersion was filtered through a 40-μm nylon mesh (Cell Strainer) to remove the cell mass, thereby obtaining a neuronal cell suspension. The neuronal cell suspension was diluted with the medium, and 10% inactivated bovine serum (26140-079, Thermo Fisher Scientific) and 10% inactivated horse serum were added. Thereafter, 100 μL/well of the suspension was seeded in a 96-well plate (354461, CORNING) pre-coated with poly-D-lysine so that the initial culture density was 1.4×10^5 cells/cm^2. After the seeded cells were cultured under 5% CO2-95% air in a 37° C. incubator for 2 days, the entire medium was replaced with 120 μL of fresh medium, and the cells were subsequently cultured for 5 days.
On the 7th day of culture, compound was added in the following manner. A solution of the test compound in DMSO was diluted with the medium so that the concentration was 10 times higher than the final concentration. NGF (450-01, PEPRO TECH, INC.) was prepared at 0.3 ng/mL. These two solutions were added each in an amount of 15 μL/well, and the mixture was mixed well. The final DMSO concentration was 0.1% or less. Moreover, only DMSO and NGF were added to the control group.
(3) ACh Release Measurement
One day after compound addition, an amount of ACh release was measured by HPLC in the following manner. A warmed buffer was added at 100 μL/well to the well after the medium was eliminated, and the buffer was immediately removed. Thereafter, a buffer to which 10 μm choline, 10 μm physostigmine, and 6 mM KCl were added was added at 120 μL/well. The buffer was prepared by adding 125 mM NaCl, 25 mM 4-(2-hydroxyethyl)-1-piperazineethanesulfonic acid, 1.2 mM KH2PO4, 1.2 mM MgSO4, 2.2 mM CaCl2 (2H2O), and 10 mM glucose to sterilized water, and the final pH of the solution was set to 7.4. After the 96-well plate to which the buffer was added was incubated under 5% CO2-95% air in a 37° C. incubator for 40 minutes, 80 μL of buffer was collected. An internal standard solution IPHC (5×10^−7 M) was added in an amount of 6 μL to the collected buffer, and the buffer was transferred to a tube for HPLC measurement and subjected to HPLC measurement. […]

The subject of experiment [2] is Choline Acetyltransferase (ChAT) mRNA. The experiment in a line: Measurement of choline acetyltransferase (ChAT) mRNA expression levels in the rat septal area. Type of experiment: in vivo. The settings on record: SD rat medial septum, 24 hours after administration, qPCR. The procedure: Measurement of Choline Acetyltransferase (ChAT) mRNA Expression Levels in the Rat Septal Area
(1) Compound Administration
In this study, SD male rats (Charles River Laboratories Japan, Inc.) with a body weight of about 250 to 350 g were used. The compound was dissolved in 0.01 mol/L hydrochloric acid, and orally administered.
At 24 hours after the administration of the compound, the whole brain tissue was collected under pentobarbital anesthesia. The medial septum was isolated from whole brain on ice and frozen with liquid nitrogen, and then stored at −80° C.
(3) Measurement of ChAT mRNA Expression Levels
For RNA purification, RNeasy Plus Mini Kit (#74136: QIAGEN) was used in this study. RNA purification was performed by the method described in the kit. After RNA purification, the total RNA concentration was measured by using QIAxpert Instrument (QIAGEN). cDNA was synthesized using SuperScript® VILO™ cDNA Synthesis Kit (#11754: Thermo Fisher Scientific). The synthesis of cDNA was performed by the method described in the kit. The synthesized cDNA was diluted 4 times with RNase free water, and the diluted cDNA solution was used as a sample. Taqman Universal PCR Master Mix (#4304437: Thermo Fisher Scientific), Taqman® Gene Expression Assays, INVENTORIED (#4331182: Thermo Fisher Scientific), RNase free water, and the cDNA solution were mixed in amounts of 10 μl, 1 μl, 4 μl, and 5 μl, respectively, and the resulting mixture was used as a measurement sample solution. Quantitative polymerase chain reaction (qPCR) was conducted using ABI PRISM® 7900HT (Thermo Fisher Scientific) by a fluorescence probe method. Analysis was performed by SDS 2.4 (Thermo Fisher Scientific). The results were calculated by the percentage of the amount of ChAT mRNA expression levels in the compound administration group increased from the amount of ChAT mRNA expression levels in the vehicle administration group.

In the case of `CN1CCc2c(sc3nc4n(c(=O)c23)-c2ccsc2C(=O)N(C)C4)C1` [Example 2, 5,10-dimethyl-5,6,9,10,11,12-hexahydropyrido[4″,3″:4′,5′]thieno[2′,3′:4,5]pyrimido[1,2-a]thieno[2,3-f][1,4]diazepine-4,13-dione], the “Concentration (μM) showing a 20% or more increase from the amount of ACh in the control group” value in experiment [1] was 0.1 µM. Moreover, in experiment [2] (oral 3 mg/kg), the “Amount (%) increased from the amount of ChAT mRNA expression levels in the vehicle administration group” value (shortened to “Amount (%) increased from the amount”) is recorded as 38.0%.
`CN1CCc2c(sc3nc4n(c(=O)c23)[C@H]2CCC[C@@H]2C(=O)N(C)C4)C1` [Example 6, (3aS,14aS)-5,10-dimethyl-3,3a,5,6,9,10,11,12-octahydro-H-cyclopenta[f]pyrido[4″,3″:4′,5′]thieno[2′,3′:4,5]pyrimido[1,2-a][1,4]diazepine-4,13(2H,14aH)-dione]: the “Concentration (μM) showing a 20% or more increase from the amount of ACh in the control group” value in experiment [1] was found to be 0.03 µM. In addition, the “Amount (%) increased from the amount” value in experiment [2] (oral 10 mg/kg) is listed as 32.0%.
`CN1CCc2c(sc3nc4n(c(=O)c23)[C@@H]2CCC[C@@H]2C(=O)N(C)C4)C1` [Example 4, (3aS,14aR)-5,10-dimethyl-3,3a,5,6,9,10,11,12-octahydro-1H-cyclopenta[f]pyrido[4″,3″:4′,5′]thieno[2′,3′:4,5]pyrimido[1,2-a][1,4]diazepine-4,13(2H,14aH)-dione]: the “Concentration (μM) showing a 20% or more increase from the amount of ACh in the control group” value in experiment [1] stood at 0.1 µM. Moreover, the “Amount (%) increased from the amount” value in experiment [2] (oral 10 mg/kg) is 42.4%.
Turning to `CN1CCc2c(sc3nc4n(c(=O)c23)[C@@H]2CCC[C@H]2C(=O)N(C)C4)C1` [Example 5, (3aR,14aR)-5,10-dimethyl-3,3a,5,6,9,10,11,12-octahydro-1H-cyclopenta[f]pyrido[4″,3″:4′ 5′]thieno[2′,3′:4,5]pyrimido[1,2-a][1,4]diazepine-4,13(2H,14aH)-dione], the “Concentration (μM) showing a 20% or more increase from the amount of ACh in the control group” value in experiment [1] came out at 0.1 µM. Moreover, the “Amount (%) increased from the amount” value in experiment [2] (oral 3 mg/kg) is 33.6%.
